Molecules are shown by their SMILES.

These results are taken from ChEMBL document CHEMBL1137783 (J Med Chem, 2009).

Sequence of Voltage-gated inwardly rectifying potassium channel KCNH2 (Q12809 whole entry): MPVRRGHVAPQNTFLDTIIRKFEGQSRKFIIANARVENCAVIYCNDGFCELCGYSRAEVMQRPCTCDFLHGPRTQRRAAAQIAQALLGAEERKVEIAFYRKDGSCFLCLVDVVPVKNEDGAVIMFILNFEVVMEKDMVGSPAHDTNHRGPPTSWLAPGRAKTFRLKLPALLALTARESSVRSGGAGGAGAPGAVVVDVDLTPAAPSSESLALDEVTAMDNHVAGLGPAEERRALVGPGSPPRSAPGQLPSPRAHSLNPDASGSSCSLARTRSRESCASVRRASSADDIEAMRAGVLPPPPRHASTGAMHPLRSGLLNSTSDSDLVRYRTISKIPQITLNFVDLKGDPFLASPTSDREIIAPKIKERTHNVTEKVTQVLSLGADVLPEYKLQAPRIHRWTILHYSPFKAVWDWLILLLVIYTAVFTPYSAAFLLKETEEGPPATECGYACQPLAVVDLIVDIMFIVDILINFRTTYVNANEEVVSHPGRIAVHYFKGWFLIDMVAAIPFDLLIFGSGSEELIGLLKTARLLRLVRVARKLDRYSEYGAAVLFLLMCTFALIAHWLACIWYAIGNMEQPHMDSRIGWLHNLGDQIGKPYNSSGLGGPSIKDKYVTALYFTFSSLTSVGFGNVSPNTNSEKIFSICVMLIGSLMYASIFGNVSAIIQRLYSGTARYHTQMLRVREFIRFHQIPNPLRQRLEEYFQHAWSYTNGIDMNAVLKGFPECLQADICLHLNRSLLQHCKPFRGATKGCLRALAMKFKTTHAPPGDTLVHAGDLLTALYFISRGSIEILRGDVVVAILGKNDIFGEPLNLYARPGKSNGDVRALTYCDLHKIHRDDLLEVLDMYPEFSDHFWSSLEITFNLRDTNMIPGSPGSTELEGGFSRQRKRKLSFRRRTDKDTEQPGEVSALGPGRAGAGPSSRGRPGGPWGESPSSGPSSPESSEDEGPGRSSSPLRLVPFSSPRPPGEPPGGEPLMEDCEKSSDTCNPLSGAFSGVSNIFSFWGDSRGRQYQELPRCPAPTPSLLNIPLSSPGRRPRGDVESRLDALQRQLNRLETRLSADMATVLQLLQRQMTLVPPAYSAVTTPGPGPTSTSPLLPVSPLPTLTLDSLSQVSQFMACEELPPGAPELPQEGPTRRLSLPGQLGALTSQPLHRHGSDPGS

The target in one series is T1, hERG (KCNH2) (Homo sapiens, UniProt Q12809). The experiment in a line: Inhibition of human ERG channel at 300 uM.
T1 sequence (Q12809 whole entry): as above
Details: not given
Regarding `Cc1nnc(C(C)C)n1C1CC2CCC(C1)N2CC[C@H](NC(=O)C1CCCC1)c1ccccc1` (some centres undefined), testing at 300 µM gave an inhibition of 18%.

On to `Cc1nnc(C(C)C)n1C1CC2CCC(C1)N2CC[C@H](NC(=O)C1CCC1)c1ccccc1` (some centres undefined), for which the inhibition – broadly, the share of the control response that was lost under treatment – at 300 µM is 30%.

Compound `Cc1nnc(C(C)C)n1C1CC2CCC(C1)N2CC[C@H](NC(=O)CCC(F)(F)F)c1ccccc1` (some centres undefined) registered an inhibition at 300 µM of 14%.

The target of a further series is T1, hERG (KCNH2). Put plainly: Inhibition of human ERG channel at 3 uM.
Details: not given
With `CC(C)(CO)NC(=O)[C@H]1CC[C@H](c2nc(-c3cccc(C(F)(F)F)c3)c[nH]2)CC1`, the inhibition at 3 µM came out at 6%.

The target in a further series is T1, hERG (KCNH2). Put plainly: (§1) Inhibition of human ERG channel. As to conditions: human.
With `Fc1ccc(-c2[nH]c3cc(F)ccc3c2C2CCCNC2)cc1` (centres undefined), the Ki – broadly, a dissociation constant, usually derived from enzyme kinetics or from competition with a known ligand – was 1300 nM.

As to `Fc1ccc(-c2[nH]c3cc(F)ccc3c2[C@@H]2CNCC[C@H]2F)cc1`, the affinity, expressed as Ki, was 1600 nM.

In turn, `Fc1ccc2c([C@@H]3CNCC[C@H]3F)c(-c3ccsc3)[nH]c2c1` showed a Ki of 1500 nM.

Regarding `CN1CCCC(c2c(-c3ccccc3)[nH]c3ccccc23)C1` (centres undefined), the Ki was 9600 nM.

On to `c1ccc(-c2[nH]c3ccccc3c2C2CCNCC2)cc1`, for which the affinity corresponds to a Ki of 5700 nM.

With `Fc1ccc2c([C@@H]3CNCC[C@H]3F)c(-c3cccc4ccccc34)[nH]c2c1`, affinity was put at a Ki of 110 nM.

As for `Fc1ccc2c([C@@H]3CNCC[C@H]3F)c(-c3ccc4ccccc4c3)[nH]c2c1`, the Ki was 500 nM.

A further series addresses Voltage-gated inwardly rectifying potassium channel KCNH2 (Homo sapiens, UniProt Q12809). The description is as §1.
Details: not given
As for `c1ccc(-c2[nH]c3ccccc3c2C2CC3CCC(C2)N3)cc1` (centres undefined), the Ki was 18 nM.

In the case of `C[N+]1([O-])CCN(C2=Nc3cc(Cl)ccc3Nc3ccccc32)CC1`, 133000 nM corresponded to half-maximal inhibition (IC50).

Take `CN1Cc2cncn2Cc2ccc(C#N)c(c2)Oc2ccc3c(c2)[C@@H](CC3)N2CC[C@@H]1C2=O`: the IC50 (in general, the midpoint of a concentration-inhibition curve) was 2600 nM.

For the compound `Fc1ccc2[nH]c(-c3ccccc3)c([C@@H]3CNCC[C@H]3F)c2c1`, the Ki was 7000 nM.

For `Cc1cc2c(s1)Nc1ccccc1N=C2N1CCN(C)CC1` [OLANZAPINE], half-maximal inhibition (IC50) required 231 nM.

As to `CC(=O)Nc1cccc(N2CCN(CCCCNS(=O)(=O)CC3CCCCC3)CC2)c1` [NALUZOTAN], it took 3800 nM to reach half-maximal inhibition (IC50).

The series is the same for the next values; noted with them: human.
On to `C[N+]1([O-])CCN(C2=Nc3cc(Cl)ccc3Nc3ccccc32)CC1`, for which the pIC50 – broadly, the negative decadic logarithm of the IC50, by convention in mol/L – came to 3.875.

In the case of `Cc1cc2c(s1)Nc1ccccc1N=C2N1CCN(C)CC1` [OLANZAPINE], the pIC50 stood at 6.636.
